Like-named read-outs stand apart in the source and are kept apart here.
Legend:
[1] = tested on: phosphorylated cofilin and myosin light chain (MLC); test: Western blotting of p-MLC/MLC and p-cofilin/cofilin in keloid fibroblasts; format: cell-based, human; settings: keloid fibroblasts with or without stretch, Y-27632, FIG. 4C
Description: Scale bar=50 μm. The results were expressed as the mean with SD (n=5). The experiments were performed in triplicate. Student's t test was used for all analyses. * P<0.05. […] To obtain whole-cell extracts, cells were lysed with Pierce Cell Lysis Buffer (Thermo Fisher, MA, USA) containing phosphatase inhibitors and protease inhibitors. Protein extracts (30 μg) were analyzed by sodium dodecyl sulfate polyacrylamide gel electrophoresis (SDS-PAGE) and transferred to a polyvinylidene difluoride membrane. […] GAPDH was used as a loading control for Western blotting analysis.

[2] = tested on: F-actin; test: F-actin immunofluorescence in keloid fibroblasts; format: cell-based, human
Description: Immunofluorescence confocal microscopy experiments were performed with antibodies to F-actin (green) and vinculin (orange). Scale bar=50 μm. Quantification of fluorescence intensity was shown. The experiments were performed in triplicate. Student's t test was used for all analyses. * P<0.05. […] Scale bar=50 μm. The results were expressed as the mean with SD (n=5). The experiments were performed in triplicate. Student's t test was used for all analyses. * P<0.05. […] Cells were washed twice with cold PBS and fixed overnight at 4° C. with 4% (w/v) paraformaldehyde. […] The cells were exposed to blocking buffer (1% BSA/PBS) for 30 min at room temperature and then exposed to Alexa Fluor 488-conjugated phalloidin (#A12379, Invitrogen, USA) in 1% BSA/0.1% Triton X-100/PBS for 1 hour at room temperature. After three washing steps, the cells were mounted with DAPI mounting medium, sealed with coverslip, and examined using a confocal laser scanning microscope (LSM 900; Carl Zeiss, NY, USA).

[3] = tested on: keloid fibroblasts; test: Cell viability / proliferation of keloid fibroblasts (CCK-8); format: cell-based, human; settings: increasing dose of Y-27632, 24 hours, FIG. 3A
Description: Immunofluorescence confocal microscopy experiments were performed with antibodies to F-actin (green) and vinculin (orange). Scale bar=50 μm. Quantification of fluorescence intensity was shown. The experiments were performed in triplicate. Student's t test was used for all analyses. * P<0.05. […] Briefly, human skin and keloid tissues were collected from five patients who underwent surgical resection at Seoul National University Boramae Hospital. The samples were rinsed three times with Dulbecco's phosphate-buffered saline containing 1% antibiotic-antifungal solution (A/A; Welgene, Gyeongsangbuk-do, Korea) and cut into 3 mm thick pieces. The tissues were then placed in 5 mg/ml dispase solution (Roche, Basel, Switzerland) for 4 hours at 37° C. The dermis and epidermis were separated, chopped into 1-mm thick pieces, and digested in 3 mg/ml collagenase type I (Thermo Fisher, MA, USA) to obtain a single cell suspension. The cells were cultured in Dulbecco's modified Eagle's medium (DMEM; Biowest, Nuaillé, France) containing 10% fetal bovine serum (FBS; Biowest, France) and 1% Antibiotic/Antimycotic Solution (Welgene Inc., Korea) in a humidified incubator at 37° C. and 5% CO2. […] The effect of stretch stimulation on the proliferation of normal and keloid fibroblasts was evaluated by the CCK-8 assay. […] The experiments were performed in triplicate and the data are expressed as the mean±SD.

[4] = tested on: keloid nodules formed by human keloid fibroblasts; test: In vivo histological and immunohistochemical analysis of keloid nodules; parameters: species or system SCID mice
Description: A isolates nodules from mice treated with DMSO or Y-27632. […] Original magnification: ×200, scale bar=100 μm.
Nodules were harvested 14 days after initial cell injection, fixed in 4% paraformaldehyde at 4° C. for 24 hours, washed with water for at least 4 hours, and finally embedded in paraffin. Paraffin sections (4 μm thick) were stained with hematoxylin and eosin (H&E, ab245880, Abcam, Cambridge, UK) and MT (TRM-2, ScyTek, Logan, Utah, USA) according to the manufacturer's instructions. The cytoplasm (400× magnification) of H&E-stained sections and the collagen density (400× magnification) of MT-stained sections were checked for each section using an Olympus BX53 microscope (Olympus Corporation, Shinjuku, Japan). Screenshots of three fine fields (right, center, and left) were acquired. The number of inflammatory cells per unit area (0.1 mm^2) was calculated using Olympus cellSens standard imaging software. The optical density of collagen was measured using ImageJ Immunohistochemical staining by avidin-biotin complex method. Briefly, paraformaldehyde (4%) fixed specimens were embedded in paraffin and cut into 4 μm thickness. The sections were dried at 56° C. for 1 hour, and then subjected to deparaffinization and rehydration steps with xylene. The sections were then cultured with trypsin enzyme antigen retrieval solution (ab970, Abcam, Cambridge, UK) at 37° C. for 30 min. Overnight culture was performed with primary antibodies at 4° C. After three washes with Tris-buffered saline containing 0.025% Triton-100, the second antibody was applied to each section at room temperature for 30 min. Images were taken in three fields (right, center, and left) with an Olympus BX53 microscope and analyzed with Image J software.

[5] = tested on: keloid nodules formed by human keloid fibroblasts; test: Patient-derived keloid xenograft SCID mouse model of nodule formation (nodule volume and weight); format: in vivo; settings: SCID mice, Y-27632 20 mg/kg injected into nodule
Description: Approval for animal experiments was obtained from the Animal Experiment Performance Committee of Seoul National University Boramae Hospital (Approval No.: 2019-0031). Male NOD.CB17-Prkdc scid/J (SCID) mice (5 weeks old, weight: 22.58±0.91 g) were purchased from Charles River Japan (Yokohama, Japan). All animal experimental procedures were performed in accordance with the guidelines of the Animal Experiment Research Committee of Seoul Boramae Hospital. All experiments were performed under aseptic conditions. Under anesthesia using isoflurane, the dorsal furs of seven SCID mice were removed, the midline was marked, and then a 26-gauge needle was used in a 1-ml syringe (Becton, Dickinson and Company, Franklin Lakes, NJ, USA). These cells were obtained from seven patients who underwent keloid resection at Seoul National University Boramae Hospital. The cells were injected approximately 1 cm apart from the left and right sides of the most prominent area of the mouse's back. […] The nodules were measured every 2 to 3 days with calipers, and nodule volume was calculated using the following equation: Nodule volume=½×A×B2, where A=length in millimeters, B=width in millimeters. To collect the nodules 14 days after keloid fibroblast injection, the surrounding skin was carefully separated using forceps and a blade, and only the nodules were collected and weighed.

[6] = tested on: ROCK1; settings: FIG. 4A
Description: Mechanical stretching was applied to keloid fibroblasts using a mechanical stretching device (STB-1400; Strex Inc., Osaka, Japan). Briefly, the keloid fibroblasts were seeded at a density of 1.2×10^5 cells in a strex stretch chamber (STB-CH-10 Strex Inc., Osaka, Japan) pre-coated with 20 μg/ml rat tail type I collagen (C7661, Sigma Aldrich). After allowing attachment for overnight incubation, the strex stretch chamber was moved to the stretching device and mounted on a hook. The flexible silicone chamber was exposed to stretching with a length of 0-20% tension at a frequency of 10 cycles/min (0.166 Hz) for 24 hours. […] Cells of the control group were cultured in the same type of chamber in an incubator.
ROCK1 kinase activity was analyzed with a ROCK activity assay kit (Cell Biolabs, CA, USA) according to the manufacturer's instructions. The ROCK activity assay kit is an enzyme immunoassay designed to detect the phosphorylation level of myosin phosphatase target subunit 1 at Thr696 by ROCK. […] The cells were harvested, trypsinized, and washed twice with PBS. […] Protein concentrations were determined using the Pierce BCA Quantification Protein Kit (Thermo Fisher Scientific, MA, USA). […] The absorbance was read at 450 nm with a SpectraMax Plus 384 microplate reader (Molecular Devices, San Jose, CA, USA).

[7] = tested on: keloid fibroblasts; test: Transwell migration analysis of keloid fibroblasts; format: cell-based, human; settings: under mechanical force (stretch 24 hours), 10 μM Y-27632, transwell 24 hours, FIG. 5B
Description: Scale bar=200 μm. The results were expressed as the mean with SD (n=5). Student's t test was used for all analyses. * P<0.05.
For migration analysis using Transwell […] pore-size polycarbonate membrane (#3422, Corning Inc., ME, USA). […] As a control, static cells were cultured in a strex stretch chamber under the same conditions without stretch stimulation. Keloid cells were then harvested and counted, and 2×10^4 cells were resuspended in 150 μL of medium containing 1% FBS and reintroduced into the upper compartment of the insert. The lower compartment was filled with 500 μL of medium containing 2% FBS as a chemoattractant. The cells were allowed to migrate for 24 hours at 37° C. The cells were fixed in 4% PFA, permeabilized with 0.1% Triton X-100 in PBS for 10 min, and stained with hematoxylin for 10 min at room temperature. After washing with PBS, non-migrated cells were removed from the upper insert by a cotton swab. The polycarbonate membrane was removed from the insert and mounted on a slide. Fields of migrated cells were captured with an inverted microscope (Leica Microsystems GmbH, Wetzlar, Germany). The migration area was evaluated as a purple area extracted from each image, and analyzed with Image J software as a percentage of the migrated area.

[8] = tested on: YAP and MRTF; test: Nuclear translocation of YAP and MRTF during stretching (subcellular fractionation, Western blotting); format: cell-based, human; settings: stretched keloid fibroblasts, FIG. 6
Excerpt: A is a Western blotting analysis of nuclear translocation of YAP and MRTF in the subcellular fraction of keloid fibroblasts subjected to or not subjected to mechanical stretching with or without Y-27632. B is a quantitative analysis of cytoplasmic and nuclear expression levels of MRTF and YAP. The results were expressed as the mean with SD (n=5). Student's t test was used for all analyses. *P<0.05. Nuclear/cytoplasmic extracts were separated separately using NE-Per Nuclear and Cytoplamic Extractons Reagents (#78833, Thermo Scientific, MA, USA) according to the manufacturer's instructions. Subcellular fractionation lysis was analyzed by Western blotting analysis for YAP (#5157, Cell Signaling, MA, USA), MRTF (sc-47724, Santa Cruz, CA, USA) including GADPH ([…], Santa Cruz, CA, USA) and Lamin B (#12586, Cell Signaling, MA, USA) as internal markers for cytoplasmic and nuclear fractions, respectively. The quantification was performed with Image J software.

[9] = tested on: COL1A1, COL3A1, Fibronectin, α-SMA, CTGF, PCNA mRNA; test: qRT-PCR of pro-fibrotic genes in keloid fibroblasts; format: cell-based, human; settings: mechanically stimulated keloid fibroblasts, FIG. 5A
Description: Scale bar=200 μm. The results were expressed as the mean with SD (n=5). Student's t test was used for all analyses. * P<0.05. […] Total RNA was extracted using TRIzol reagent (Thermo Fisher Scientific, MA, USA). RNA (1000 ng) was subjected to cDNA synthesis using oligo (dT) random primers (Integrated DNA Technologies, IA, US) and AccuPower RT PreMix (Bioneer, South Korea) according to the following procedure: qRT-PCR was performed with PowerUp SYBR green master mix on a StepOnePlus real-time PCR System (Applied Biosystems, CA, USA) at 42° C. for 60 min and 95° C. for 5 min. The mRNA levels of each gene were normalized to the mRNA levels of GAPDH. The PCR steps are composed of an initial denaturation step at 94° C. for 5 min; at 94° C. for 1 min (denaturation), 55° C. for 1 min (annealing), and 72° C. for 2 min (extension); and a final extension step at 72° C. for 7 min. […] Relative expression was calculated using the 2-ΔΔCt method.

Compound: C[C@@H](N)[C@H]1CC[C@H](C(=O)Nc2ccncc2)CC1 [Y-27632]
- expression of phosphorylated proteins (p-cofilin, p-MLC) [1]: greatest decrease
- disruption of F-actin cytoskeletal structure ([2]; at 25 and 50 μM, 24 h, keloid fibroblasts): dramatic disruption
- cellular F-actin network ([2]; fibroblasts with or without mechanical stretching exposed to Y-27632, FIG. 4B): significantly disrupted
- F-actin fiber formation in keloid fibroblasts ([2]; increasing doses, 24 h, FIG. 3B): tightly regulated by Y-27632 treatment in a dose-dependent manner
- inhibitory effect on keloid fibroblast proliferation [3]: No inhibitory effect
- inflammatory cells in the keloid region ([4]; H&E staining, compared to the control group): reduced inflammatory cells
- deposition of collagen bundles (MT staining) ([4]; control group compared to the Y-27632-treated group): higher deposition of collagen bundles in the control group
- protein expression of VEGF, SMA, vimentin, collagen type I, and collagen type III ([4]; immunohistochemistry of nodule tissue, compared to the DMSO-treated group, FIG. 7B): significantly reduced
- weight of keloid nodules compared to the control group [5]: significantly reduced
- mean volume of keloid nodules at the time of keloid nodule excision ([5]; DMSO control 21.27±13.98): 17.21±13.49 MM^3
- average weight of keloid nodules ([5]; control 7.61±3.16, FIG. 7A): 4.56±3.50 Mg
- decrease in the activity of ROCK1 ([6]; keloid fibroblasts treated with Y-27632 (10 μM, 24 hours) and stretch-stimulated): 26%
- decrease in the activity of ROCK1 ([6]; keloid fibroblasts treated with Y-27632 alone (10 μM, 24 hours, static)): 10.8%
- migration of keloid fibroblasts [7]: partially inhibited
- nuclear import of YAP and MRTF [8]: inhibiting nuclear import
- mRNA levels of fibrotic genes (COL1A1, COL3A1, Fibronectin, α-SMA, CTGF, PCNA) [9]: decrease

From US20250206845A1, “PHARMACEUTICAL COMPOSITION INCLUDING RHO-KINASE INHIBITOR FOR PREVENTION OR TREATMENT OF CUTANEOUS FIBROTIC DISORDERS SUCH AS KELOID, ETC. AND USE THEREOF” (Seoul National University R&DB Foundation, priority 2022, published 2025)
